# Where “and” joins values, the source holds several entries; their conditions need not be identical. Equal values may be shown once.
# How the values were obtained:
# [1] = target: P-gp (MDR1-MDCKII cells) (Homo sapiens, UniProt P08183); assay: Bidirectional permeability in MDR1-MDCKII cells with and without GF120918; settings: for Rank Papp: MDR1-MDCKII permeability rank
# Procedure: (§1) MDR1-MDCKII cells were seeded onto […] (PET) in a 96-well insert system. Test and reference compounds were administered to the apical (A-to-B) and basolateral (B-to-A) sides of the cell monolayer. Permeation of the compounds in both directions was assessed, with and without a P-glycoprotein (P-gp) inhibitor (GF120918). […] After a 2.5-h incubation period, each compound’s permeability and efflux ratio were calculated as described in the SI. […]
# (§2) Bidirectional permeability assessment in MDR1-MDCK cells. Test and reference compounds were quantified using LC -MS/MS ana lysis based on th e peak ar ea r atio of analyte to internal standard (IS). T he apparent permeability coefficient (Papp) in cm/s was computed using the equation: Pa pp = (dCr/d t ) × V r / ( A × C 0), where dCr/ d t […]
# (§3) represents the cumulative concentration of the compound in the receiver chamber over time (µM/s), Vr is the solution volume in the receiver chamber (0.075 mL on the apical side, 0.25 mL on the basolateral side), A is the surface area for transport (0.0804 cm2 f or the monolayer ar ea), and C0 is the initial concentration in the donor chamber ( µM) .
# (§4) The efflux ratio was determined using the equation Efflux Ratio = P a pp ( B:
# (§5) A ) / Pa pp (A: B) . […]
# (§6) Additionally, the percent of lucifer yellow in the basolateral well was calculated using the equation:
# (§7) Lucif er yellow = VV bbbbbbbbbbbbbbbbbbbb ×RR FFFF bbbbbbbbbbbbbbbbbbbb ×100 VV bbaaaaaa bbbb ×RRRRRR bbaaaaaa bbbb+VV bbbbbbbbbbbbbbbbbbbb ×RRFFFF bbbbbbbbbbbbbbbbbbbb wher e RFUApical and RFUBasolateral demote the r elative f luor escence unit values of lucif er yellow in the apical and basolateral wells, respectively, and VApical and VBasolateral represent the volumes of apical and basolateral wells (0.075 mL and 0.25 mL, r espectively) . T he % Lucif er Yellow should be less than 2, indicating minimal leakage. […]
# [2] = target: P-gp (MDR1) (Homo sapiens, UniProt P08183); assay: as above; settings: dog
# P-gp (MDR1), sequence (P08183 whole entry): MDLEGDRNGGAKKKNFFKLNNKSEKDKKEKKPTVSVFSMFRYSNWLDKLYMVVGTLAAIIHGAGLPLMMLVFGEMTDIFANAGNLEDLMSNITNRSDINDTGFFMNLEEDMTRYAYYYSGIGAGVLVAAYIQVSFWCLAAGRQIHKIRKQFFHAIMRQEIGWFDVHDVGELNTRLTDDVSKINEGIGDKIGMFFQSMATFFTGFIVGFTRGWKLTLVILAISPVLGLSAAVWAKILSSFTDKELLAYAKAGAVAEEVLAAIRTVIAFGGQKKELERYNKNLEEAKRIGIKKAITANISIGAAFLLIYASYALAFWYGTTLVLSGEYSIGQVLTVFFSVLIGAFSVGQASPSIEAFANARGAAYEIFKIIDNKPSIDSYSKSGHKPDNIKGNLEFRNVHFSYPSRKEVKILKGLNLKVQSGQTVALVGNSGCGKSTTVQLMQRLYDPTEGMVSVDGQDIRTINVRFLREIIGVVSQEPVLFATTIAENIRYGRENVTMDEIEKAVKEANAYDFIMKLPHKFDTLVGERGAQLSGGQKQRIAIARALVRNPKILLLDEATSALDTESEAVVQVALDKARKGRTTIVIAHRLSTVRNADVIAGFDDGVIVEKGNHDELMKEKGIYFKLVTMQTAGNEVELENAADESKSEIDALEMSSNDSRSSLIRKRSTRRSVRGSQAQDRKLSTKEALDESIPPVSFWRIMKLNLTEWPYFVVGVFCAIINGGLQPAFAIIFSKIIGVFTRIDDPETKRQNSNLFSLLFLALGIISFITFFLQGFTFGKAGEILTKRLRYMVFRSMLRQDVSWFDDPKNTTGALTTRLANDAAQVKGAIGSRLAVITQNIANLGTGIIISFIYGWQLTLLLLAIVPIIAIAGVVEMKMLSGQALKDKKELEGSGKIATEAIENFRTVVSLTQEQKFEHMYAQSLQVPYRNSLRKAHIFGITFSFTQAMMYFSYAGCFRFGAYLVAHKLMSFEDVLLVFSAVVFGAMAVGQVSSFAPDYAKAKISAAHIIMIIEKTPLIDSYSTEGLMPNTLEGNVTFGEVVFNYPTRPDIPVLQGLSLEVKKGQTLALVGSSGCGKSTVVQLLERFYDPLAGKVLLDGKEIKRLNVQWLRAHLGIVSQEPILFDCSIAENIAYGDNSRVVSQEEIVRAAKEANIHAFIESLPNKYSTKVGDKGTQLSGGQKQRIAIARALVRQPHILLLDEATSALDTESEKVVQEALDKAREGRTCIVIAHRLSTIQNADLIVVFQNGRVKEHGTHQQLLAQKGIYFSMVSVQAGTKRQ
# Procedure: as §1, §2, §3, §4, §5, §6, §7
# [3] = test system: TA98; assay: Mini-Ames assay, strain TA98; format: cell-based; settings: Salmonella typhimurium
# Procedure: (§8) Mini Am es assay. To conduct the assay, top agar was melted with a microwave and maintained at a temper atur e ≥47 °C in a water bath. T he assay was performed using a heat block set to 45 °C ± 2 °C. 12 × 75 mm test tubes were prepared in duplicates. For each concentration, the following components were added sequentially to a test tube:
# (§9) […] The mixture was vortexed and then dispensed into w ells using a dispo sable pipette. The plates wer e then incubated at 37±2 °C for approximately 48 to 72 hours.
# (§10) BBbbbb BBBBbbbb BBBB = AAAAbbbbbbAAbb nnnnnnbbbbbb bboo bbbbAAbbbbbbbbnnbbbb oobbbb bbbb eeee dd bbbbbb AAbbbbnn gg AAAAbbbbbbAAbb nnnnnnbbbbbb bbBB bbbbAAbbbbbbbbnnbbbb BBbbbb DDDDDDDD nn bbAAbbbbaaAAbb AAbbbbnnaa The mutagenicity of the compound was determined by evaluating the number of revertant colonies in strains TA98 and TA100. A compound was […]
# (§11) related and if the fold increase in revertants (F) was equal to or greater than 2 for […]
# (§12) background lawn growth on the agar plates. A scoring system ranging from 0 to 4 […]
# growth, respectively. A score of 4 signified full '100%' growth. […]
# (§13) background lawn and required magnification for visualization. […]
# [4] = test system: TA100; assay: Mini-Ames assay, strain TA100; format: cell-based
# Procedure: as §8, §9, §10, §11, §12
# complete cytotoxicity, while scores 1, 2, and 3 represented 25%, 50%, and 75% growth, respectively. A score of 4 signified full '100%' growth. The background […]
# as §13
# [5] = target: T1, mouse CB1R (Mus musculus, UniProt P47746); assay: Radioligand competition displacement binding, [3H]CP-55,940, mouse brain membranes; settings: [3H]CP-55,940 displacement, mouse brain membranes; read-out: CB1R mKi
# T1 construct: crude membranes from mouse brain; from tissue; host or cells: mouse brain cortex (without cerebellum) membranes, C57Bl/6Jhsd mice
# T1 sequence (P47746 whole entry): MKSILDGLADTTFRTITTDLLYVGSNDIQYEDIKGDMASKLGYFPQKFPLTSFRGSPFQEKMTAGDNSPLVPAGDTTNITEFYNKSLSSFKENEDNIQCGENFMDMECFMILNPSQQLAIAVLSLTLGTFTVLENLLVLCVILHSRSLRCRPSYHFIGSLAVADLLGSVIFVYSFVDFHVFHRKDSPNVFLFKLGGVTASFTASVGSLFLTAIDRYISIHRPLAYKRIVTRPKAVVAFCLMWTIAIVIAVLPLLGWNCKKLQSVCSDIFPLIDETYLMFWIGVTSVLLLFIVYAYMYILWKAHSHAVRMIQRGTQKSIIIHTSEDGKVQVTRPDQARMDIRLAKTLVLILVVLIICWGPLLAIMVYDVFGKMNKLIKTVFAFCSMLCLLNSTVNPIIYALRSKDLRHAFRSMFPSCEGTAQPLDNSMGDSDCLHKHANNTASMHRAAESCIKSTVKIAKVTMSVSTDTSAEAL
# Procedure: (§14) BNS compounds’ binding to CB1R and CB2R was assessed in competition displacement assays using [^3H]CP-55,940 as the radioligand and crude membranes from mouse brain or human cells overexpressing the CB1R or CB2R. All data were in triplicates with Ki values determined from three independent experiments. See SI for a detailed procedure.
# Supplementary Experimental Methods
# Brain membrane preparation for CB1R b i nd i ng . The mouse cortex, excluding the cerebellum, was dissected from 6-week-old C57Bl/6Jhsd mice (Harlan, Israel). The tissue was homogenized in 4 mL Buffer 1 (320 mM sucrose, 2 mM EDTA, 5 m M MgCl 2) using a glass-Teflon homogenizer and Hei-T ORQUE 200 (Heidolph; Cat# 17-012- 002- 25 -1) homogenizer set to 132 rpm. After homogenization, the mixture was centrifuged at 1,600 × g for 10 min at four °C, and the resulting supernatant was kept on ice. The pellet (P1) was discarded, and the remaining supernatant was subje cted to additional rounds of resuspension in 4 mL Buffer 1 followed by centrifugations, repeating this process three times. The pellets obtained from these centrifugations were discarded, and the three supernatant fractions were combined and subjected to higher-speed centrifugation at 39,000 × g for 15 min at f ou r °C. […] This resuspended pellet ( P 2 ) was incubated at 37 °C for 10 min and then centrifuged at 23, 000 × g for 10 min at 4°C.
# After centrifugation, the pellet (P2) was resuspended in 5 mL Buffer 2 and further incubated at 30 °C for 40 min. Following this incubation, the suspension was centrifuged at 11,000 × g for 15 min at 4 °C. The pellet (P2) was resuspended in 2 mL Buffer 3 containing 50 mM TRIS HCl pH 7.4, 1 mM EDTA, and 3 mM MgCl 2. T h e protein concentration of the final suspension was determined using the BCA assay.
# Subsequently, the suspension was diluted to a final concentration of 2 mg/mL in Buffer 3, aliquoted on ice, and stored at - 80 °C for further use.
# (§15) CB1R and CB2R binding. Binding to the CB1R/CB2R was asse ss ed using competition displacement as says with [ 3H] CP -55,940 as the radioligand. Purified membranes from the mouse brain were utilized for CB1R assessment (as described above). Purified […]
# membranes from cells overexpressing human CB2R ( Char les River CAT # A618) w e r e employed for CB2R evaluation.
# For mouse CB1R binding assays, the novel compounds were dissolved in dimethyl sulfoxide (DMSO) to reach a final concentration of 10 mM. Each compound was then diluted in Buffer 3 (as described above) supplemented with 0.14% BSA, resulting in concentrations ranging from 10^-4 M to 10^-10 M. Triplicates of 100 µL of each concentration were dispensed into siliconized glass tubes. At the same time, 100 µL of Buffer 3 with 0.14% BSA was dispensed into three tubes as blanks. CB1R b r a i n membranes (20 µg) were added to each tube and diluted with 800 µL Buffer 3 with 0.14% BSA. Subsequently, 5 nM of [ 3H] CP -55,940 (100 µL) was added to each tube.
# The tubes were sealed with parafilm and incubated with shaking (120 rpm) in a water bath at 30 °C for 1 hour. Following incubation, 2 mL of cold Buffer 4 (50 mM TRIS HCl pH 7.4, 1 mg/mL BSA) was added to each tube.
# To harvest the content of each tube, a Brandel M-24R Vacuum Harvester was employed, with a wet WHATMAN GF/B filter paper (Fired) (one membrane for 12 tubes) placed in the harvester after being washed twice with Buffer 4. The filter membrane in the harvester absorbed the full content of each tube. Then, the filter membrane was wash ed six times with Buffer 4. Each filter -glass membrane tube wa s excised and transferred to a 20 mL glass tube co ntaining a 5 mL ULTIMA GOLD scintillation cocktail. […]
# [6] = target: T2, human CB2R (Homo sapiens, UniProt P34972); assay: Radioligand competition displacement binding, [3H]CP-55,940, membranes with human CB2R; settings: [3H]CP-55,940 displacement, read-out: CB2R hKi
# T2 construct: purchased PerkinElmer; Charles River RBXCB2M400UA; A618
# T2 sequence (P34972 whole entry): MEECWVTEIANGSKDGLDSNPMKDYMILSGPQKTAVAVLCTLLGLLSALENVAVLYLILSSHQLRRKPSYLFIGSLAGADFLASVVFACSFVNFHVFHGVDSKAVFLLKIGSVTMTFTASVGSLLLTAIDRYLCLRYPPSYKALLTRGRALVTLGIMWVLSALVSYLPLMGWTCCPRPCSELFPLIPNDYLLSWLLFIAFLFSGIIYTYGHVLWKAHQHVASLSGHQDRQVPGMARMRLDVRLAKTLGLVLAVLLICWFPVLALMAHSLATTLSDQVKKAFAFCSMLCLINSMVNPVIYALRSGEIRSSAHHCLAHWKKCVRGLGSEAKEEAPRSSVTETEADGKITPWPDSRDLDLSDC
# Procedure: as §14
# Supplementary Experimental Methods […]
# as §15
# membranes from cells overexpressing human CB2R ( Char les River CAT # A618) w e r e employed for CB2R evaluation. […]
# Radioligand binding assays were performed to asse ss the binding affinity of the different compounds to hCB1R (RBHCB1M4 00UA; Per kinElmer) or hCB 2R
# (RBXCB2 M400UA; PerkinElmer). Competition displacement as says w ere employed, […]
# utilizing [3H] C P -55,940 as the radioligand and crude membranes from humans for CB1 R or CB2 R. T he compounds were tested at various concentrations (eight points with a five-fold serial dilution starting at two m M) , and their ability to displace [3H] CP - 55, 940 was evaluated. Upon completion of the binding assays, the reaction mixture was filtered through GF/C plates, followed by four washes with cold wash buffer. After drying for one hour, 50 μL of Perkin Elmer Microscint 20 cocktail was added to the filter plate wells, and the bound [3H] C P -55,940 radioligand was measured using a β counter. All data points were duplicated, and Ki values were determined from two independent experiments using GraphPad Prism 7.02 analysis software, extracted through nonlinear regression analysis. […]
# MgCl 2. The tissue was homogenized using a glass -Teflon and Hei-T ORQUE 200 homogenizer (Heidolph; Cat#17- 012- 002- 25 -1) set to 132 rpm. The resulting suspen sion underwent centrifugation at 48,000 × g for 20 min at four °C, and the supernatant was discarded. The pellet obtained was homogenized again and subjected to a second centrifugation under the same conditions. Subsequently, the resulting pellet […]
# mM EGTA, 9 mM MgCl 2, and 150 mM NaCl, followed by homogenization. The protein concentration of the suspension was determined using the BCA assay, and the suspen sion was diluted to a final concentration of 2 mg/mL in assay buffer. The prepared suspension was aliquoted on ice and stored at - 80 °C for further use.
# [7] = MDCK-MDR1, Mean recovery % A to B, without GF120918
# [8] = Salmonella typhimurium, 2 μg/well
# P-gp (MDR1-MDCKII cells), sequence (P08183 whole entry): as the sequence (P08183 whole entry) above
compound,measurement,setting,value
"CC(C)(C)NCC(O)COc1cccc2c1CC(O)C(O)C2 (centres unmarked) [Nadolol, reference compound]",Rank Papp,[1],Low
same,Papp A→B at 2.5 h,[2]; MDCK-MDR1,0.42 ×10⁻⁶ cm/s
same,recovery at 2.5 h,[2]; [7],102%
"Nc1ccc2cc3ccccc3cc2c1 [2-aminoanthracene (2-AA), 2-aminoanthracene, reference compound]",F value,[3]; 2 μg/well,31.70
same,Number of revertants MEAN,[3]; 2 μg/well,348.67
same,solubility,[4],P0
same,F value,[4]; [8],8.00
same,Number of revertants MEAN,[4]; [8],317.33
"CCOC(=O)N1CCC(C(=O)NC2CCCOc3c2nn(-c2ccccc2Cl)c3-c2ccc(Cl)cc2)CC1 (centres unmarked) [BNS816, Ethyl-4-((2-(2-chlorophenyl)-3-(4-chlorophenyl)-5,6,7,8-tetrahydro-2H-oxepino[3,2-c]pyrazol-8-yl)carbamoyl)piperidine-1-carboxylate]",P-gp substrate,[1]; MDR1-MDCKII cells,no
same,Rank Papp,[1],Hi gh
same,Papp A→B at 2.5 h,[2]; MDCK-MDR1,6.99 ×10⁻⁶ cm/s
same,Papp B→A at 2.5 h,[2]; MDCK-MDR1,5.37 ×10⁻⁶ cm/s
same,efflux ratio at 2.5 h,[2]; MDCK-MDR1,0.77
same,recovery at 2.5 h,[2]; [7],41.6%
same,recovery at 2.5 h,"[2]; MDCK-MDR1, Mean recovery % B to A, with GF120918",61.4%
same,recovery at 2.5 h,"[2]; MDCK-MDR1, Mean recovery % B to A, without GF120918",48.8%
same,Ki,[5],8.9 nM and 8.93 nM
same,Ki,[6],1530 nM
"O=[N+]([O-])c1ccc2c(c1)Cc1ccccc1-2 [2-nitrofluorene (2-NF), 2-nitrofluorene, reference compound]",F value,[3]; 4 μg/well,14.00
same,Number of revertants MEAN,[3]; 4 μg/well,102.67

# Source: publication PMC12067444, “Synthesis and Pharmacological Characterization of Novel Peripheral Cannabinoid-1 Receptor Blockers Based on a Tricyclic Scaffold” (Journal of Medicinal Chemistry, 2025)
